The values that follow come from patent US20080146633A1, “COMPOSITIONS FOR SKIN LIGHTENING AND TONING DOWN PIGMENT DISORDERS, COMPRISING CREATININE AND/OR CREATININE DERIVATIVES AS ACTIVE SUBSTANCES” (GOLDSCHMIDT GMBH, priority 2002, published 2008).

Test [1] deals with fungi tyrosinase. Kind of test: Tyrosinase inhibition (L-Dopa to dopachrome, absorption at 475 nm). The test is classed as biochemical. The conditions noted are these: 15 min at room temperature. On the procedure: The inhibition of fungi tyrosinase was determined as a function of different concentrations of creatinine (0.05 to 1.7% by volume) by reference to the enzymatic reaction of L-Dopa to dopachrome. The absorption maximum of the dopachrome is at a wavelength of 475 nm. The tyrosinase inhibition is calculated in accordance with the following equation:
Inhibition [%]={100−[(Esample*100)/Ereference]} (1)
each measurement was carried out in duplicate, with parallel mixtures. The variation of the method is ±10%,
25 mM acetate buffer (pH 4.9): dilute from 0.2 M acetate buffer (pH 4.9) (Sigma) Phosphate buffer (pH 7): Titrosol (Merck) 20 mM L-DOPA (in acetate buffer) Tyrosinase stock solution: 40 U/ml of phosphate buffer Stock solution of creatinine: 0.45 M in phosphate buffer
The DOPA solution and the tyrosinase stock solution were prepared only prior to the start of the experiment. The L-DOPA solutions should be stored in a dark place and in vessels which can be sealed tightly.
500 μL of DOPA stock solution 400 μL of creatinine solution or phosphate buffer (reference) 100 μL of tyrosinase stock solution Following the addition of the enzyme, the samples were thoroughly mixed using a “Reax Top” (Heidolph). Following an incubation period of 15 min at room temperature, the absorption at 475 nm was determined. The measurement was carried out using a “Helios Beta” spectrophotometer from Unicam.

Test [2] concerns MelanoDerm in vitro skin model (melanocytes). Put plainly: In vitro skin model test (MelanoDerm), melanin determined quantitatively. To be noted: for Melanin: applied every 48 hours. The test is classed as cell-based. The text has this:
The skin-lightening effect was validated on an in vitro skin model, the MelanoDerm™ from MatTek. This model is very similar in structure and function to the natural skin and has the cell types relevant in the epidermis including the melanocytes, which are responsible for the synthesis of the main pigment melanin. Further information can be found, for example, in M. K. King et al. in Proceedings of Society of Cosmetic Chemists Annual Scientific Meeting and Technology Showcase 1998, 35-36. Creatinine, kojic acid dipalmitate as positive standard and water as negative control were applied every 48 hours over a period of 21 days to the in vitro skin model.
The melanin produced by the melanocytes was determined quantitatively on the 17th and 21st day.

Structures are written as SMILES.

Consider `CN1CC(=O)NC1=N` [Creatinine, 2-imino-N-methylhydantoin], for which the “Tyrosinase inhibition (%)” value was 1.77% in test [1] (creatinine 0.05 % by volume); 9.97% in test [1] (creatinine 0.30 % by volume); 14.21% in test [1] (creatinine 0.60 % by volume); 20.75% in test [1] (creatinine 0.90 % by volume); 24.81% in test [1] (creatinine 1.10 % by volume); 28.15% in test [1] (creatinine 1.40 % by volume). Moreover, the “Tyrosinase inhibition (%)” value in test [1] (creatinine 1.70 % by volume) is recorded as 32.18%. In addition, the “Melanin” value in test [2] (Day 17) amounted to 94.5 µg; in test [2] (Day 21), 12.67 µg. In addition, the “Effectiveness compared with kojic acid dipalmitate (positive standard)” value in test [2] (upon prolonged application) was “twice as effective”.

For `CCCCCCCCCCCCCCCC(=O)OCc1cc(=O)c(OC(=O)CCCCCCCCCCCCCCC)co1` [Kojic dipalmitate, kojic acid dipalmitate, reference compound], the “Melanin” value in test [2] (Day 17) is 102.5 µg; in test [2] (Day 21), 82.67 µg.
